Key:
[1] = system: C481S BTK; assay: In vitro kinase activity assay, C481S BTK (Nanosyn); details: 2 h preincubation
[2] = target: T1, BTK kinase domain (Homo sapiens, UniProt Q06187); assay: LC-MS covalent binding and ibrutinib competition assay with recombinant BTK kinase domain; details: for displacement by ibrutinib (ibrutinib adduct formation): 40 μM ibrutinib added to preformed complex; for displacement by ibrutinib (ibrutinib adduct formation) / time scale of exchange / dissociation of the covalent complex: 37 °C; for displacement by ibrutinib (ibrutinib adduct formation) / formation of covalent complex with BTK / protein labeled by the PROTAC: LC-MS; for time scale of exchange / dissociation of the covalent complex: 40 μM ibrutinib; for formation of covalent complex with BTK / protein labeled by the PROTAC: 3 μM compound + 2 μM BTK
T1 construct: human BTK kinase domain (residues 387–659); 6xHis (N, cleaved yes); TEV protease cleavage site (N, cleaved yes); made in house; virus produced in Sf9, expression in Tni insect cells
T1 sequence (Q06187 387-659): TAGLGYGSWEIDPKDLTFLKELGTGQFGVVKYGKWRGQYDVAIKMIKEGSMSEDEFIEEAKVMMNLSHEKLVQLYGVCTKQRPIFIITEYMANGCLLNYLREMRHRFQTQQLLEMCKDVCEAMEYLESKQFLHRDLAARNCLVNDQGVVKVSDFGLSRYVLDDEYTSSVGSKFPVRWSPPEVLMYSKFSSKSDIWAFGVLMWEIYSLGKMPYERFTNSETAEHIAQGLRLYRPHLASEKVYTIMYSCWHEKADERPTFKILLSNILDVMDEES
Experimental: We also used LC-MS to directly observe the formation of covalent complexes with recombinant BTK and measure their dissociation kinetics (Figure 6C, D, Supporting Figure 5A).
Binding experiments were performed in Tris 20 mM pH = 8, 50 mM NaCl, and 1 mM DTT. BTK kinase domain was diluted to 2 μM in buffer, and 3 μM PROTAC was added by adding 1/100th volume from a 300 μM solution. The PROTACs were incubated with BTK at room temperature for various times. For testing by LCMS, 24 μL of the solution was mixed with 6 μL of 2.4% formic acid, and 10 μL was injected to LCMS.
For binding experiments in the presence of glutathione, freshly dissolved reduced glutathione was incubated at 6.14 mM with 4 μM compounds for 30 min at room temperature in Tris 20 mM pH = 8 and 50 mM NaCl. At this point BTK was added to a concentration of 2 μM (diluting the GSH to 5 mM and the compounds to 3.25 μM), and LC-MS was used as described previously to follow the covalent labeling of BTK.
For data analysis, the raw spectra were deconvoluted using a 27 000:37 000 Da window and 1 Da resolution. The signal from masses 27 000:30 000 and 34 000:37 000 (which contained no peaks) was averaged and subtracted from the whole signal.
Cloning and Over Expression of BTK
Human wild type BTK full length was obtained from the ORFeome (ref: http://www.orfeomecollaboration.org/), from which the full human BTK gene (clone HsCD00433457) was inserted into the mammalian expression vector pCDNA3.1. In parallel, a mutant BTK C481S was constructed by assemble 2 PCR products harboring the desired mutation and cloned into pCDNA3.1. Both constructs contain a C -terminal 6x-His tag and three amino acids sequence (GTK) linker between the BTK coding sequence and the His tag.
The expression of hBTK is driven by the CMV promoter. U2OS cells (ATCC HTB-96) were grown to 70% confluency in a 10 cm plate, transfected with either hBTK plasmid (BTK WT or C481S) using Lipofectamine 2000 reagent (Thermo Fisher Scientific) according to manufacturer’s instructions. Cells were subsequently incubated for 48 hours post transfection, trypsinized and resuspended in 12 mL medium, and divided 2 mL per well in a 6-well plates and left to adhere over-night. 72 hours post transfection 100 nM PROTACs were added for 24 hours and BT K was measured by performing western blot procedure as described in the main […]
Expression and Purification of Recombinant BTK
The expression and purification of human BTK kinase domain (residues 387–659) was based on the method used by Bradsha w JM. et al1. The kinase domain was inserted into pFastBac-1 with an N-terminal 6× -His tag followed by a TEV protease cleavage site (The plasmid was a gift from Dr. Ville Paavilainen, University of Helsinki). Viruses were produced […]
cells by infection of 2 L of cultured cells with 1:200 mL virus solution such that cell growth was terminated after 3 days. The cells were collected by centrifugation (800 g for 15 minutes), and the pellet was resu spended in 50 mL ly sis buf fer (10 mM Hepes, pH 7.5, 400 mM NaCl, 1.5 mM DTT) supplemented with 1× protease inhibitor cocktail (Roche). The cells were lysed by five passages through a cell homogenizer. The cellular debris wer e pelleted by centrifugation (30,000 g for 30 minutes). The protein was bound in batch to nickel– nitrilotriacetic acid agarose beads in binding buffer (lysis buffer supplemented with 20 mM imidazole) for 4 hours at 4°C. The beads were washed with additional binding buffer ( four 5 mL washes), and the protein was eluted with four 0.5 mL portions of elution buffer (lysis buffer […]
supplemented with 300 mM imidazole). The His tag was cleaved by the addition of TEV protease with concomitant dialysis overnight into cleavage buffer (50 mM Tris, pH 8.0, 0.5 mM EDTA, 1 mM DTT) at 4°C. The resulting soluble protein was passed ov er Ni -NTA beads to remove the protease and purified further by gel filtration on a HiLoad_16/60_Superdex_75 (GE Healthcare) column equilibrated with 20 mM Tris, pH 8.0, 50 mM NaCl, 1 mM DTT. The […]

[3] = target: wild-type BTK (Homo sapiens, UniProt Q06187); assay: In vitro kinase activity assay, wild-type BTK (Nanosyn)
Chain of wild-type BTK (Q06187 whole entry, species assumed): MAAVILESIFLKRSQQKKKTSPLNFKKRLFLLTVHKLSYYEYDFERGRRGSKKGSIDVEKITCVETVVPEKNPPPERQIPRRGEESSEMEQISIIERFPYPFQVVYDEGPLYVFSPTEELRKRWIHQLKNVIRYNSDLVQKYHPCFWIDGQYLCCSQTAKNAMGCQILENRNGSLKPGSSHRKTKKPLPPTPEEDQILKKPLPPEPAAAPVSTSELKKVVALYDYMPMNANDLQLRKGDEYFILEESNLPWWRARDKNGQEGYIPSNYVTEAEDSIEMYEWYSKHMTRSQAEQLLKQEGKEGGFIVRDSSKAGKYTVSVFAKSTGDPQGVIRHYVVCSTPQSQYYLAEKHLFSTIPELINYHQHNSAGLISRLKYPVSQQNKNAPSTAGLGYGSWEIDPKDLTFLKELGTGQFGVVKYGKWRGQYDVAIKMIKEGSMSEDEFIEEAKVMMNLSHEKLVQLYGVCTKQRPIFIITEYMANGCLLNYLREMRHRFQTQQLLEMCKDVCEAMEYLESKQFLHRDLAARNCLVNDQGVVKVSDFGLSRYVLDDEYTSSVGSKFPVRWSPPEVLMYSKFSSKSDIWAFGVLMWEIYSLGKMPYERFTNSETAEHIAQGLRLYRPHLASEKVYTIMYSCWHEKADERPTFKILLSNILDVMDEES

| SMILES | fold reduction in potency, C481S vs wild-type BTK [1] | time scale of exchange / dissociation of the covalent complex [2] | IC50 [3] | formation of covalent complex with BTK ([2]; room temperature) | ibrutinib labeling of BTK in presence of the PROTAC ([2]; 4 μM ibrutinib, 1 h, room temperature) | time to full ibrutinib labeling of BTK in presence of preincubated PROTAC ([2]; 4 μM ibrutinib, room temperature) | protein labeled by the PROTAC [2] | displacement by ibrutinib (ibrutinib adduct formation) [2] |
| --- | --- | --- | --- | --- | --- | --- | --- | --- |
| Nc1ncnc2c1c(-c1ccc(Oc3ccccc3)cc1)nn2C1CCCN(C(=O)CCCCCCOCCOCCOCCOCCOc2cccc3c2C(=O)N(C2CCC(=O)NC2=O)C3=O)C1 (stereo not drawn) [NC-1] | < 2 fold | – | 16 nM | forms no covalent adduct | 100% | ≤ 1 h | – | – |
| Nc1ncnc2c1c(-c1ccc(Oc3ccccc3)cc1)nn2C1CCCN(C(=O)C=CCCCCOCCOCCOCCOCCOc2cccc3c2C(=O)N(C2CCC(=O)NC2=O)C3=O)C1 (stereo not drawn) [IR-2] | only slight sensitivity to the mutation | – | 14 nM | – | – | – | 80–85% | no ibrutinib adduct was observed even after 28 h |
| Nc1ncnc2c1c(-c1ccc(Oc3ccccc3)cc1)nn2C1CCCN(C(=O)C=CCOCCOCCOCCOCCOCCOc2cccc3c2C(=O)N(C2CCC(=O)NC2=O)C3=O)C1 (stereo not drawn) [IR-1] | – | – | 2 nM | – | – | – | 80–85% | no ibrutinib adduct was observed even after 28 h |

Stronger by IC50 [3], values ahead:

| fold reduction in potency, C481S vs wild-type BTK [1] | time scale of exchange / dissociation of the covalent complex [2] | IC50 [3] | formation of covalent complex with BTK ([2]; room temperature) | ibrutinib labeling of BTK in presence of the PROTAC ([2]; 4 μM ibrutinib, 1 h, room temperature) | time to full ibrutinib labeling of BTK in presence of preincubated PROTAC ([2]; 4 μM ibrutinib, room temperature) | protein labeled by the PROTAC [2] | SMILES | displacement by ibrutinib (ibrutinib adduct formation) [2] |
| --- | --- | --- | --- | --- | --- | --- | --- | --- |
| 68 fold | 10 to 20 h | 1 nM | – | – | – | – | N#CC(=CCCCCOCCOCCOCCOCCOc1cccc2c1C(=O)N(C1CCC(=O)NC1=O)C2=O)C(=O)N1CCCC(n2nc(-c3ccc(Oc4ccccc4)cc3)c3c(N)ncnc32)C1 (stereo not drawn) [RC-2] | gradual displacement of the PROTAC by ibrutinib |
| > 1000 fold | 10 to 20 h | 0.4 nM | extremely fast | – | – | – | CC(C)(C=C(C#N)C(=O)N1CCCC(n2nc(-c3ccc(Oc4ccccc4)cc3)c3c(N)ncnc32)C1)CCCOCCOCCOCCOCCOc1cccc2c1C(=O)N(C1CCC(=O)NC1=O)C2=O (stereo not drawn) [RC-3] | gradual displacement of the PROTAC by ibrutinib |

Reference: publication PMC7349657, “Efficient Targeted Degradation via Reversible and Irreversible Covalent PROTACs” (Journal of the American Chemical Society, 2020)
